# Measured values from paper PMC9468151, “Identification of a binding site on soluble RANKL that can be targeted to inhibit soluble RANK-RANKL interactions and treat osteoporosis” (Nature Communications, 2022).
# Where “and” joins values, the source holds several entries; their conditions need not be identical. Equal values may be shown once.
# Assays:
# sRANKL = target: T1, sRANKL (Rattus norvegicus, UniProt Q9ESE2, D175N); assay: Surface plasmon resonance (SPR) assay; assay type: binding; details: immobilized sRANKL, 25 °C
# T1 construct: (1) sRANKL (rat 159-318 aa); His6-sumo (N, cleaved yes); made in house; host or cells: Escherichia coli BL21 (DE3)
# T1 sequence (Q9ESE2 159-318 D175N): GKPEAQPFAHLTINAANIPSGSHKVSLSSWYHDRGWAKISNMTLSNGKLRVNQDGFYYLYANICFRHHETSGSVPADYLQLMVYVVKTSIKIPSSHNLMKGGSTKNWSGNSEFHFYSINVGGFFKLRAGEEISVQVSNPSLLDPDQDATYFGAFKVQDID
# Method: A ProteOn XPR36TM SPR instrument (BioRad Hercules, CA) was used for carrying out SPR assays. sRANKL protein in PBS buffer, pH 7.4, was diluted to 20 nM in 10 mM sodium acetate buffer, pH 5.5 and immobilized in parallelflow channels of a the EDAC/Sulfo-NHS activated surface of a GLH biosensor chip (Bio-Rad) with an amine coupling kit (Bio-Rad). The surface was blocked with 1 M ethanolamine. The final immobilization level for sRANKL was approximately 14,000 RU. A blank immobilization channel in the same GLH biosensor chip was also activated with EDAC/Sulfo-NHS and blocked with 1 M ethanolamine to use as a reference.
# Biosensor binding experiments were conducted in filtered and degassed running buffer (PBS containing 0.005% Tween-20, pH 7.4) at 25 °C. Compounds was dissolved in 100% DMSO in appropriate different series concentrations of stock solutions. Before detecting, compounds were diluted in six or five concentrations with running buffer and ensured that the content of DMSO contained in each detected concentration was consistent. Compounds in different concentrations were injected simultaneously at a flow rate at […] for 180 s and 120 s for the association phase, followed by 180 s for the disassociation. Following the compound injection, the chip surface was regenerated with 40 s pulses of 0.85% H3PO4 and running buffer.
# ProtedOn Manager 2.0. was used for data analysis. Each set of sensorgrams was globally analyzed using the 1:1 Langmuir binding model to obtain the kinetic rate constants (Kon and Koff). Global kinetic rate constants (ka and kd) were derived for each reaction, and the equilibrium dissociation constant, KD, was calculated using the equation KD = kd/ka.
# OVX rats = assay: Osteoporosis biomarkers determination in rat serum (ELISA); assay type: in vivo; design: OCN / RANKL / PINP / CTX-I / Glu-OCN: unit not given here; details: for CTX-I / Glu-OCN / OCN / PINP / RANKL: serum, OVX + compound, individual animals
# Method: Change of rat osteoporosis biomarkers after treating with S3-15 were determined by enzyme-linked immunosorbent assay (ELISA). […] serum biomarkers including CTX-I (C-terminal telopeptide of type I collagen), OC(Osteocalcin), PINP (Procollagen I N-Terminal propeptide), and RANKL(Receptor activator of nuclear factor-κB ligand). Rat blood was collected from aortaventralis after anesthesia, and centrifuged in 14000 × g at 4 °C to get the serum samples. The protein contents of those biomarkers in serum samples were detected according to manufacturer’s instruction (CTX-I and OC, Systems IDS, UK; RANKL, R&D Systems, USA; PINP, USCN Life Science, Inc., China.).
# [1] = Pharmacokinetic studies in rat; assay type: in vivo; design: plasma concentration-time (fig. S2c): unit not given here; details: for Cmax / half-life: Sprague-Dawley; for Cmax / half-life / plasma concentration-time (fig. S2c): rat; for Cmax / half-life / AUC: male SD rats, oral 10 mg/kg, plasma
# Method: 28-week-old and 280 g∼370 g weight male SD (Sprague Dawley) rats were used for pharmacokinetic (PK) studies. Rats were weighed and divided into groups of 3 rats per group. Compounds S3, S3-05 and S3-15 were dissolved in deionized water and made the concentration to 1 mg/mL. Then rats were oral gavage administrated at the doses of 10 mg/kg for each compound. Blood samples were collected in tubes with heparin sodium at 5 min, 10 min, 20 min, 30 min, 40 min, 60 min, 2 h, 3 h, 4 h, 5.5 h, 7 h, 9 h, 12 h, 16 h, 24 h, 32 h, 40 h, 48 h, time points, with three […] per time point for each compound. Blood samples were centrifuged 2100 × g for 10 min at 4 °C, then the plasma was transferred to a clean microfuge tube. Plasma samples were stored at −80 °C. Additionally, ten rats were used as a control and not treated with compound. Plasma from control mice was used to calibrate LC-MS and correct for matrix effects. Drug concentration in plasma was quantified by LC-MS-based methods. Pharmacokinetic parameters were estimated using Phoenix WinNonlin (version 6.3) (Certara USA, Princeton, New Jersey) from mean plasma concentration-time profiles.
# RAW264.7 cells = assay: In vitro cytotoxicity assay (MTT); assay type: cell-based, mouse
# Method in brief: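 Log-phase cells were seeded at 6 × 10^3 per well and incubated 24 h, with viability read by MTT. Growth inhibition (%) was calculated from OD relative to vehicle wells. CC50 came from nonlinear regression curve fitting.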
# [2] = OVX rats + S3-15, individual animals
SMILES,Kd (sRANKL) [µM],Cmax [1] [ng/mL],half-life [1] [h],AUC [1] [hr*ug/m],plasma concentration-time (fig. S2c) ([1]; time 0.083 h),plasma concentration-time (fig. S2c) ([1]; time 0.167 h),plasma concentration-time (fig. S2c) ([1]; time 0.333 h),plasma concentration-time (fig. S2c) ([1]; time 0.5 h),plasma concentration-time (fig. S2c) ([1]; time 0.667 h),plasma concentration-time (fig. S2c) ([1]; time 1 h),plasma concentration-time (fig. S2c) ([1]; time 2 h),plasma concentration-time (fig. S2c) ([1]; time 3 h),plasma concentration-time (fig. S2c) ([1]; time 4 h),plasma concentration-time (fig. S2c) ([1]; time 5.5 h),plasma concentration-time (fig. S2c) ([1]; time 7 h),plasma concentration-time (fig. S2c) ([1]; time 9 h),plasma concentration-time (fig. S2c) ([1]; time 12 h),plasma concentration-time (fig. S2c) ([1]; time 16 h),plasma concentration-time (fig. S2c) ([1]; time 24 h),plasma concentration-time (fig. S2c) ([1]; time 48 h),further results
CCOC(=O)c1sc(NC(=O)/C(=N/Nc2ccc(O)cc2C(=O)O)C(C)=O)nc1C [S3-05],23.6,60 ± 10,10.6 ± 2.31,0.38± 0.23,0.0241 and 0.0344 and 0.0141,0.091 and 0.0772 and 0.0497,0.07 and 0.0598 and 0.0834,0.063 and 0.055 and 0.0901,0.057 and 0.0597 and 0.0836,0.0458 and 0.0351 and 0.0779,0.0356 and 0.0153 and 0.0386,0.0376 and 0.0287 and 0.0316,0.0238 and 0.027 and 0.0298,0.0163 and 0.0195 and 0.0418,0.0115 and 0.0105 and 0.0613,0.0058 and 0.0107 and 0.0452,0.0058 and 0.0222 and 0.0307,0.0077 and 0 and 0.0286,0.0024 and 0.0688 and 0.0143,0.0008 and 0.0021 and 0.0027,CTX-I (OVX rats): 12.9391 and 9.961 and 23.5145 and 16.5322 and 12.0463 and 14.1264 and 13.0825 and 21.4762; Glu-OCN (OVX rats): 23.1879 and 10.5179 and 18.8663 and 21.4957 and 14.7477 and 20.9157 and 18.2902 and 26.5413; OCN (OVX rats): 109.522 and 50.9168 and 121.686 and 154.593 and 50.4316 and 135.849 and 58.7802 and 162.173; PINP (OVX rats): 4703.95 and 10142.4 and 4202.52 and 5828.23 and 7980.56 and 6497.2 and 3099 and 3185.01; RANKL (OVX rats): 183 and 172.091 and 217.546 and 201.182 and 228.454 and 173.909 and 175.727 and 170.273; cell viability relative to 0 μM (fig. S5e) (RAW264.7 cells; conc. 0.08 μM): 112.115 and 113.045; cell viability relative to 0 μM (fig. S5e) (RAW264.7 cells; conc. 0.28 μM): 104.323 and 119.674; cell viability relative to 0 μM (fig. S5e) (RAW264.7 cells; conc. 0.92 μM): 131.188 and 122; cell viability relative to 0 μM (fig. S5e) (RAW264.7 cells; conc. 3.03 μM): 125.024 and 127.118; cell viability relative to 0 μM (fig. S5e) (RAW264.7 cells; conc. 10 μM): 125.722 and 115.72
"CCOC(=O)c1sc(NC(=O)/C(=N/Nc2ccccc2C(=O)O)C(C)=O)nc1C [S3, (E)-2-(2-(1-((5-(ethoxycarbonyl)-4-methylthiazol-2-yl)amino)-1,3-dioxobutan-2-ylidene) hydrazinyl) benzoic acid]",34.8,1430 ± 650,7.51,5.67± 3.48,1.351 and 0.4444 and 0.2871,2.528 and 0.9092 and 0.8091,3.09 and 1.211 and 2.048,3.054 and 1.206 and 2.481,2.576 and 1.333 and 1.703,1.712 and 1.674 and 1.242,1.693 and 1.071 and 0.7425,1.218 and 0.6709 and 0.4108,1.2291 and 0.8619 and 0.3316,0.4965 and 0.6324 and 0.178,0.6171 and 0.2252 and 0.1625,0.8173 and 0.544,0.5875 and 0.2812 and 0.1945,1.063 and 0.3858 and 0.544,1.148 and 0.1582 and 0.2706,0.06761 and 0.02244 and 0.00409,CTX-I (OVX rats): 21.3236 and 22.8572 and 16.6793 and 10.172 and 21.7818 and 24.1752 and 24.2142 and 25.7828; Glu-OCN (OVX rats): 19.4432 and 20.3365 and 14.3331 and 16.8798 and 23.559 and 26.5413 and 32.3597 and 27.0763; OCN (OVX rats): 79.4709 and 101.933 and 71.1854 and 74.676 and 124.633 and 154.593 and 174.247 and 198.288; PINP (OVX rats): 3388.13 and 10860 and 11369.2 and 5541.99 and 4144.03 and 7092.56 and 5050.08 and 5955.78; RANKL (OVX rats): 139.364 and 152.091 and 195.727 and 181.182 and 193.909 and 213.909 and 163 and 128.454; cell viability relative to 0 μM (fig. S5e) (RAW264.7 cells; conc. 0.08 μM): 118.628 and 117.348; cell viability relative to 0 μM (fig. S5e) (RAW264.7 cells; conc. 0.28 μM): 120.489 and 117.697; cell viability relative to 0 μM (fig. S5e) (RAW264.7 cells; conc. 0.92 μM): 125.722 and 127.234; cell viability relative to 0 μM (fig. S5e) (RAW264.7 cells; conc. 3.03 μM): 128.164 and 131.886; cell viability relative to 0 μM (fig. S5e) (RAW264.7 cells; conc. 10 μM): 130.258 and 129.909
CC(=O)/C(=N\Nc1ccccc1C(=O)O)C(=O)Nc1ccccn1 [S3-15],33.7,9520 ± 920,15.5,113.59± 17.41,8.91 and 3.381 and 6.675,27.134 and 17.7488 and 10.2458,13.8156 and 22.2223 and 11.4529,17.5658 and 15.3508 and 13.9547,19.2235 and 12.2338 and 15.5001,10.8474 and 12.0395 and 10.786,16.2026 and 12.172 and 14.9878,10.9318 and 10.4453 and 9.091,11.3125 and 10.0653 and 13.8947,8.587 and 8.51 and 12.2576,16.4452 and 12.0395 and 11.7835,19.4794 and 12.2576 and 12.0395,5.907 and 4.021 and 6.547,1.447 and 2.372 and 1.915,0.5718 (2×) and 0.5604,0.1406 and 0.08379 and 0.1171,"CTX-I, serum (OVX rats; [2]): 19.469 pg/mL and 18.8316 pg/mL and 14.1264 pg/mL and 18.682 pg/mL and 15.0327 pg/mL and 20.1095 pg/mL and 19.8831 pg/mL and 22.3952 pg/mL and 19.2437 pg/mL; Glu-OCN, serum (OVX rats; [2]): 17.0885 pg/mL and 18.9711 pg/mL and 13.9189 pg/mL and 19.8634 pg/mL and 15.7343 pg/mL and 15.8903 pg/mL and 20.547 pg/mL and 20.6523 pg/mL and 22.4466 pg/mL; OCN, serum (OVX rats; [2]): 88.7207 pg/mL and 63.1562 pg/mL and 56.8431 pg/mL and 170.125 pg/mL and 130.12 pg/mL and 70.5071 pg/mL and 180.184 pg/mL and 178.468 pg/mL and 148.784 pg/mL; PINP, serum (OVX rats; [2]): 11904.5 pg/mL and 9058.6 pg/mL and 6938.35 pg/mL and 7805.25 pg/mL and 15755.4 pg/mL and 15266.7 pg/mL and 4261.9 pg/mL and 14338.4 pg/mL and 6837.57 pg/mL; RANKL, serum (OVX rats; [2]): 197.546 pg/mL and 226.636 pg/mL and 184.818 pg/mL and 228.454 pg/mL and 215.727 pg/mL and 223 pg/mL and 210.273 pg/mL; oral availability ([1]; rat PK, in words): significant oral availability; plasma concentration-time (fig. S2c) ([1]; time 28 h): 0.2204 (2×) and 0.3334; plasma concentration-time (fig. S2c) ([1]; time 36 h): 0.2818 (2×) and 0.3414; cell viability relative to 0 μM (fig. S5e) (RAW264.7 cells; conc. 0.08 μM): 111.614 and 102.001; cell viability relative to 0 μM (fig. S5e) (RAW264.7 cells; conc. 0.28 μM): 101.596 and 120.838 and 143.415; cell viability relative to 0 μM (fig. S5e) (RAW264.7 cells; conc. 0.92 μM): 144.954 and 160.091 and 138.541; cell viability relative to 0 μM (fig. S5e) (RAW264.7 cells; conc. 3.03 μM): 169.327 and 148.033 and 125.969; cell viability relative to 0 μM (fig. S5e) (RAW264.7 cells; conc. 10 μM): 154.703 and 140.336"
